From US20050267054A1, “Antibacterial compounds with improved pharmacokinetic profiles” (priority 2002, published 2005) come the findings set out here.

Each structure is given as a SMILES string. Read-outs that look alike come from different tables or passages of the source.

This data set in a line: Pharmacokinetic profile, cassette dosing protocol in dog (IV and PO). In kind it is in vivo. As to conditions: male beagle dogs, 1 mg/kg; for AUC / clearance / half-life / Cmax / Tmax / Vd: dog, plasma; for clearance: read-out: CLp (IV) plasma clearance (converted); for Vd: male, beagle, iv. As for the experimental part: The pharmacokinetic profiles of EXAMPLE 20, EXAMPLE 22, EXAMPLE 29 and EXAMPLE 31 were evaluated using cassette dosing protocols in dog. The cassette dosing protocol in dogs combined three test compounds with the reference compound (EXAMPLE 104 of commonly-owned U.S. Pat. No. 5,866,549), each at a dose of 1 mg/kg. The compounds for each cassette were formulated as a solution in an aqueous vehicle containing 10% ethanol and one equivalent hydrochloric acid. Groups of three male beagle dogs received either an intravenous dose (IV) or an oral dose (PO). Sequential blood samples were taken from each animal for 24 hours after dosing. The plasma concentrations of the test compound and reference compounds were simultaneously determined using HPLC-MS/MS following liquid-liquid extraction of the samples. The results are shown in TABLE 2, in which CLp is plasma clearance; T1/2 and Tmax are expressed in hours; Cmax is expressed in μg/mL; AUC is expressed in μg·h/mL; F is percent bioavaibility; and Vc and Vb (volumes of distibution) are expressed in L/Kg.

[1] abbreviates: intravenous dose, read-out: AUC (IV).
[2] abbreviates: intravenous dose, read-out: T1/2 (IV) (converted).
The mark [3] stands for this setting: oral dose, read-out: T1/2 (PO) (converted).
[4] abbreviates: intravenous dose, read-out: Vb (IV) volume of distribution.
Setting [5] is: intravenous dose, read-out: Vc (IV) volume of distribution.

As to `CC[C@H]1OC(=O)[C@@](C)(F)C(=O)[C@H](C)[C@@H](O[C@@H]2O[C@H](C)C[C@H](N(C)C)[C@H]2O)C(C)(OC/C=C/c2ccc(-c3nnn(C)n3)s2)C[C@@H](C)C(=O)[C@H](C)[C@H]2NC(=O)O[C@@]21C` (stereo in doubt) [EXAMPLE 31, (3aS,4R,7S,9R,10R,11S,13R,15R,15aR)-4-ethyl-7-fluoro-3a,7,9,11,13,15-hexamethyl-11-(((2E)-3-(5-(2-methyl-2H-tetraazol-5-yl)thien-2-yl)prop-2-enyl)oxy)-2,6,8,14-tetraoxotetradecahydro-2H-oxacyclotetradecino(4,3-d) (1,3)-oxazol-10-yl 3,4,6-trideoxy-3-(dimethylamino)-β-D-xylo-hexopyranoside], the AUC (as a rule, the area under the concentration-time curve, a measure of exposure) was determined as 16100 ng·h/mL under setting [1] and 12600 ng·h/mL (oral dose, read-out: AUC (PO)). Also, for the setting “intravenous dose”, the clearance was 1.17 mL/min/kg. Also, the half-life by setting is: under setting [2], 22.9 h; under setting [3], 17.2 h. The Cmax (usually the highest concentration seen after dosing) (oral dose) came out at 480 ng/mL. Besides, the Tmax (commonly the time at which the peak concentration occurs) (oral dose) worked out at 4.5 h. Where the note is “oral dose”, the “F (PO) percent bioavaibility” value came out at 81.10%. The Vd by setting is: under setting [4], 2.3 L/kg; under setting [5], 1.1 L/kg.
With `CC[C@H]1OC(=O)[C@H](C)C(=O)[C@H](C)[C@@H](O[C@@H]2O[C@H](C)C[C@H](N(C)C)[C@H]2O)C(C)(OC/C=C/c2ccc(-c3nnn(C)n3)s2)C[C@@H](C)C(=O)[C@H](C)[C@H]2NC(=O)O[C@@]21C` (stereo in doubt) [EXAMPLE 22, (3aS,4R,7R,9R,10R,11S,13R,15R,15aR)-4-ethyl-3a,7,9,11,13,15-hexamethyl-11-(((2E)-3-(5-(2-methyl-2H-tetraazol-5-yl)thien-2-yl)prop-2-enyl)oxy)-2,6,8,14-tetraoxotetradecahydro-2H-oxacyclotetradecino(4,3-d) (1,3)-oxazol-10-yl 3,4,6-trideoxy-3-(dimethylamino)-β-D-xylo-hexopyranoside], the area under the curve (AUC) under setting [1] came out at 11500 ng·h/mL and the AUC (oral dose, read-out: AUC (PO)) was 6770 ng·h/mL. Further, the clearance (intravenous dose) was 1.5 mL/min/kg. Besides, the half-life under setting [2] is 8.4 h and the half-life under setting [3] was 7.8 h. Moreover, the peak level (oral dose) (Cmax) was 490 ng/mL. Under “oral dose”, the time to peak (Tmax) came to 1.5 h. For the same compound, the “F (PO) percent bioavaibility” value (oral dose) is given as 63.00%. The Vd amounted to 1.1 L/kg under setting [4] and 0.9 L/kg under setting [5].
Regarding `CC[C@H]1OC(=O)[C@H](C)C(=O)[C@H](C)[C@@H](O[C@@H]2O[C@H](C)C[C@H](N(C)C)[C@H]2O)C(C)(OCC#Cc2ccc(-c3nnn(C)n3)s2)C[C@@H](C)C(=O)[C@H](C)[C@H]2NC(=O)O[C@@]21C` (stereo in doubt) [EXAMPLE 29, (3aS,4R,7R,9R,10R,11S,13R,15R,15aR)-4-ethyl-3a,7,9,11,13,15-hexamethyl-11-((3-(5-(2-methyl-2H-tetraazol-5-yl)thien-2-yl)prop-2-ynyl)oxy)-2,6,8,14-tetraoxotetradecahydro-2H-oxacyclotetradecino(4,3-d) (1,3)-oxazol-10-yl 3,4,6-trideoxy-3-(dimethylamino)-β-D-xylo-hexopyranoside], where the note is “oral dose”, the “F (PO) percent bioavaibility” value worked out at 80.30%. For the same compound, the Vd was found to be 1.2 L/kg under setting [4] and 0.9 L/kg under setting [5].
As for `CC[C@H]1OC(=O)[C@@](C)(F)C(=O)[C@H](C)[C@@H](O[C@@H]2O[C@H](C)C[C@H](N(C)C)[C@H]2O)C(C)(OCC#Cc2ccc(-c3nnn(C)n3)s2)C[C@@H](C)C(=O)[C@H](C)[C@H]2NC(=O)O[C@@]21C` (stereo in doubt) [EXAMPLE 20, (3aS,4R,7S,9R,10R,11S,13R,15R,15aR)-4-ethyl-7-fluoro-3a,7,9,11,13,15-hexamethyl-11-((3-(5-(2-methyl-2H-tetraazol-5-yl)thien-2-yl)prop-2-ynyl)oxy)-2,6,8,14-tetraoxotetradecahydro-2H-oxacyclotetradecino(4,3-d) (1,3)-oxazol-10-yl 3,4,6-trideoxy-3-(dimethylamino)-β-D-xylo-hexopyranoside], the AUC runs as follows: under setting [1], 7290 ng·h/mL; (oral dose, read-out: AUC (PO)) 5140 ng·h/mL. Also, the clearance (intravenous dose) is 2.67 mL/min/kg. Also, the half-life under setting [2] was 14.4 h and the half-life under setting [3] is 11.1 h. The highest level (oral dose) (Cmax) was 250 ng/mL. The Tmax (oral dose) was 2 h. For the same compound, under “oral dose”, the “F (PO) percent bioavaibility” value is given as 73.60%. Also, the Vd reads like this: under setting [4], 3.1 L/kg; under setting [5], 1.6 L/kg.
